Publication PMC9851200, “Multiparameter phenotypic screening for endogenous TFEB and TFE3 translocation identifies novel chemical series modulating lysosome function” (Autophagy, 2022)

What was measured:
Assay type in all cases: binding
[1] = molecular target: T1, kinases (KINOMEscan panel) (Homo sapiens, UniProt O00444); details: kinase PLK4; NEW KINOMEscan
T1 sequence (O00444 1-970): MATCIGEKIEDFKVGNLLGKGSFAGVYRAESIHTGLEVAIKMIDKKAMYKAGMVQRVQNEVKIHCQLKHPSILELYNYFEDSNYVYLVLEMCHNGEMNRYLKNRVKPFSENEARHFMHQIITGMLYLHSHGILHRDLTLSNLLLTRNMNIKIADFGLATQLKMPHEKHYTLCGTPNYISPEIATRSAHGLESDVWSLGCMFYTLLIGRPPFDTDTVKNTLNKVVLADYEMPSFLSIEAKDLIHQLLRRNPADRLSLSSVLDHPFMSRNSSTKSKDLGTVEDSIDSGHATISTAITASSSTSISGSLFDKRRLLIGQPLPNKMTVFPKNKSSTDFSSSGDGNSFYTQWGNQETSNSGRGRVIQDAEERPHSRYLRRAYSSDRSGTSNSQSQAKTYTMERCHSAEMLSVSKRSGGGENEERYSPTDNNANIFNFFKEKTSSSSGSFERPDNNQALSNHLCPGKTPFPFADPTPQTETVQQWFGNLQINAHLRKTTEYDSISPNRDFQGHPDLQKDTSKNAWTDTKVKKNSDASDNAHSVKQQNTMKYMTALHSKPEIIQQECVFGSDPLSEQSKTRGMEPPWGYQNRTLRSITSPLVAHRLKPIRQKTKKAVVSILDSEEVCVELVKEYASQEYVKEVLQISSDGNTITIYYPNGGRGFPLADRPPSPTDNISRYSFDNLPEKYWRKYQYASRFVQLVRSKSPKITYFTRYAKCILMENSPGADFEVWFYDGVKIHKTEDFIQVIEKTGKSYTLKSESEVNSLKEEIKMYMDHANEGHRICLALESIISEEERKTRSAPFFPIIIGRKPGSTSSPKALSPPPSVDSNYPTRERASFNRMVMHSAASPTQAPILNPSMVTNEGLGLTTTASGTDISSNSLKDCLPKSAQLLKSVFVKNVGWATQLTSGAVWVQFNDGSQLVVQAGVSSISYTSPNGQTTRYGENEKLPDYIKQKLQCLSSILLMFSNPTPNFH

[2] = molecular target: kinases (KINOMEscan panel) (Homo sapiens, UniProt P09769); details: FGR; NEW KINOMEscan
Sequence of kinases (KINOMEscan panel) (Homo sapiens, UniProt P09769) (P09769 whole entry): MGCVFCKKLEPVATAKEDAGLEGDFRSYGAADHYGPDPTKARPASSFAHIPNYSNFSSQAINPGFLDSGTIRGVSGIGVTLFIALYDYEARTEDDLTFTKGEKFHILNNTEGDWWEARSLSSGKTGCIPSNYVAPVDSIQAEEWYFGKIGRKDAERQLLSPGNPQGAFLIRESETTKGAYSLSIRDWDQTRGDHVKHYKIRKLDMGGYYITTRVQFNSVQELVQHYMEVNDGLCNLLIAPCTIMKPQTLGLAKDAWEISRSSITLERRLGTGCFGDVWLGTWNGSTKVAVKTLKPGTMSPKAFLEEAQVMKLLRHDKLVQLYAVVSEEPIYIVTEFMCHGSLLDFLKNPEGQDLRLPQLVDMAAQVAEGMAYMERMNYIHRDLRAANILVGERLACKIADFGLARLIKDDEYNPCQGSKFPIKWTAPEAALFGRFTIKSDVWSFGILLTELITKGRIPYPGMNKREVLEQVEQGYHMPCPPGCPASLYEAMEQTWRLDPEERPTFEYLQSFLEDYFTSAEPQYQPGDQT

[3] = molecular target: kinases (KINOMEscan panel) (Homo sapiens, UniProt P42336, Q546K); details: kinase PIK3CA(Q546K); NEW KINOMEscan
Sequence of kinases (KINOMEscan panel) (Homo sapiens, UniProt P42336, Q546K) (P42336 whole entry Q546K): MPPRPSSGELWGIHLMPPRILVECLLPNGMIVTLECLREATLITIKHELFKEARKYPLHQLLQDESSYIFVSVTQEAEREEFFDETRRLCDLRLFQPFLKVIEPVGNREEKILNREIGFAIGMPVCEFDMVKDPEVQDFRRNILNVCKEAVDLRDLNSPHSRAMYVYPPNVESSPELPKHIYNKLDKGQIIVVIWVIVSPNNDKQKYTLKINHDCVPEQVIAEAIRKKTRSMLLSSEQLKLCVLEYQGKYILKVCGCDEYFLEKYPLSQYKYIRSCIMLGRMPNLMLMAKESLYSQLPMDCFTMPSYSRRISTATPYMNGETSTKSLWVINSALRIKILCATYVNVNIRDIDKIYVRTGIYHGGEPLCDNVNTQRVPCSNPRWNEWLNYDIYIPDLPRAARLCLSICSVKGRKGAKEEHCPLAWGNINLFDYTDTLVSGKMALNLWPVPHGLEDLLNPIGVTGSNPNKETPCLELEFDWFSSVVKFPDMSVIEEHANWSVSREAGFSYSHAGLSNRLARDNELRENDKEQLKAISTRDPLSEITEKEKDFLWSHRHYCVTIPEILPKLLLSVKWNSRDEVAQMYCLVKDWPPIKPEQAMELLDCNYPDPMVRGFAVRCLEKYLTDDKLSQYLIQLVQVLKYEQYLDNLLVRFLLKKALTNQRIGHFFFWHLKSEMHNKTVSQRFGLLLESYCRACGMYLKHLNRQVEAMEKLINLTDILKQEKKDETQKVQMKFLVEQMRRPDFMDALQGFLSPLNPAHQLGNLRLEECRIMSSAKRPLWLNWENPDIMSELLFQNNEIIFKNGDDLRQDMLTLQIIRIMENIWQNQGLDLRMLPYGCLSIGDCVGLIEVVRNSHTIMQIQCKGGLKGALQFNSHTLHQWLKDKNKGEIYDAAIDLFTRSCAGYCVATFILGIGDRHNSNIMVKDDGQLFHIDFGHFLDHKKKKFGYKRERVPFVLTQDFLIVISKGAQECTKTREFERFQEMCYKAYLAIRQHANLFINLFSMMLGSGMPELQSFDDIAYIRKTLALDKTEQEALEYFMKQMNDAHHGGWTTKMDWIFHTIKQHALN

[4] = molecular target: T2, kinases (KINOMEscan panel) (Homo sapiens, UniProt P42681); details: kinase TXK; NEW KINOMEscan
T2 sequence (P42681 1-527): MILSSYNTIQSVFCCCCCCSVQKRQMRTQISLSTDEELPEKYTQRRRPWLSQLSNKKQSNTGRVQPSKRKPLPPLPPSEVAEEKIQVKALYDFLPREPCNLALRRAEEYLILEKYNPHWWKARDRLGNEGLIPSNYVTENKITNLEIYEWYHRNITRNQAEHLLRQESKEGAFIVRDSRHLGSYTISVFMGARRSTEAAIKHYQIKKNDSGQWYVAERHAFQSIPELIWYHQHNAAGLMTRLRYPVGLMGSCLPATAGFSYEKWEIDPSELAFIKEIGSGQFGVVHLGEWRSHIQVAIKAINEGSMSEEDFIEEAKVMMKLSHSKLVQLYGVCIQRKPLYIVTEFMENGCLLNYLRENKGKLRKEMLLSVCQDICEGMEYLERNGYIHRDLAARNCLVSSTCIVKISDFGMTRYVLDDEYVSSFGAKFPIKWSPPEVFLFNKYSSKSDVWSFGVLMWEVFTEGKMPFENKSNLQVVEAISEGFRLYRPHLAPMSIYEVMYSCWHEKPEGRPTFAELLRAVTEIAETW

[5] = molecular target: kinases (KINOMEscan panel) (Homo sapiens, UniProt P43405); details: SYK; NEW KINOMEscan
[6] = molecular target: kinases (KINOMEscan panel) (Homo sapiens, UniProt P49759); details: kinase CLK1; NEW KINOMEscan
Sequence of kinases (KINOMEscan panel) (Homo sapiens, UniProt P49759) (P49759 whole entry): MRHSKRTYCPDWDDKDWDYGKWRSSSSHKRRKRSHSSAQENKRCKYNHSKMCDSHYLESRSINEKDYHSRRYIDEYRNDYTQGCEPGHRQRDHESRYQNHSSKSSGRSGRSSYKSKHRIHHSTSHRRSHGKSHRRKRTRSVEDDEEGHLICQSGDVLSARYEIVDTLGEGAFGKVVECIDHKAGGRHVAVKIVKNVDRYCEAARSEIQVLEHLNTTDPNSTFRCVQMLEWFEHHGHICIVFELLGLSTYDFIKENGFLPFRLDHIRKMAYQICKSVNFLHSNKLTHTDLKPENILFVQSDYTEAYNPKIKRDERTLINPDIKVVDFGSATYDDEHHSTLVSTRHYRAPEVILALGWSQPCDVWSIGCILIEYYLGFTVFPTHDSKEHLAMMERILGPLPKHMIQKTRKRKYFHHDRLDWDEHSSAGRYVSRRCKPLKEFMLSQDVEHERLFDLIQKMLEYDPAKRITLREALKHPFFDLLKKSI

[7] = molecular target: kinases (KINOMEscan panel) (Homo sapiens, UniProt Q15303); details: kinase ERBB4; NEW KINOMEscan
Sequence of kinases (KINOMEscan panel) (Homo sapiens, UniProt Q15303) (Q15303 26-1308): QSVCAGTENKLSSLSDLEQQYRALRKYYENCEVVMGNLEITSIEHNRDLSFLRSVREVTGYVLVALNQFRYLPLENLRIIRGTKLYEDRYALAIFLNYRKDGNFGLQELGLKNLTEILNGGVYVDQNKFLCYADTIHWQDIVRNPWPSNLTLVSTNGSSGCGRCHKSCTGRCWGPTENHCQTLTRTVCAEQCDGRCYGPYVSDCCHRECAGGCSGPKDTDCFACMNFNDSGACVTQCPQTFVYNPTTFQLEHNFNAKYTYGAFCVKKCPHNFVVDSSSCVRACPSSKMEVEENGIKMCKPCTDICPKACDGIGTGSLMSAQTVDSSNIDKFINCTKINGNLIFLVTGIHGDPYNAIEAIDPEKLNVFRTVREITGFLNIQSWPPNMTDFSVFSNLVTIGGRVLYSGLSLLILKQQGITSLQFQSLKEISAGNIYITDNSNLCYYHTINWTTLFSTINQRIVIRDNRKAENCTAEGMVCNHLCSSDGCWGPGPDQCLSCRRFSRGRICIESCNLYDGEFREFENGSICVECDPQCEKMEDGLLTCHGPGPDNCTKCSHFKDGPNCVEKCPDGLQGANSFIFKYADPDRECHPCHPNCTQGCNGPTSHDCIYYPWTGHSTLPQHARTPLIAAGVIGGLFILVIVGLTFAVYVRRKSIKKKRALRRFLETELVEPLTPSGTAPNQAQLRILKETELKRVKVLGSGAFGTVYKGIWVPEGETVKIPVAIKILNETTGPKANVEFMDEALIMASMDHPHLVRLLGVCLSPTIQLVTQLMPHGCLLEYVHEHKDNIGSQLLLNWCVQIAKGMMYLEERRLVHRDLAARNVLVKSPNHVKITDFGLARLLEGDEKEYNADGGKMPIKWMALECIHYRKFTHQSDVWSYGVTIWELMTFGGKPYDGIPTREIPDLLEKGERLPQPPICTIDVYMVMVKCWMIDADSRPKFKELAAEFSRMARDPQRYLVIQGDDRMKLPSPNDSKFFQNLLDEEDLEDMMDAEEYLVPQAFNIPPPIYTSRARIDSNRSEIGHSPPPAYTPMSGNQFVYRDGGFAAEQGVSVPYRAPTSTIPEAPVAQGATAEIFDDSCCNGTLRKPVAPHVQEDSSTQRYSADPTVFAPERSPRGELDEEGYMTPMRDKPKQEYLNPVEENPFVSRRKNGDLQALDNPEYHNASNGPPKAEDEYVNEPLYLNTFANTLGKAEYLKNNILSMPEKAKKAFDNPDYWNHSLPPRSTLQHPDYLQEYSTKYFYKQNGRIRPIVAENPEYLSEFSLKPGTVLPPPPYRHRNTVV

[8] = molecular target: T3, kinases (KINOMEscan panel) (Homo sapiens, UniProt Q8N568); details: NEW KINOMEscan
T3 sequence (Q8N568 1-766): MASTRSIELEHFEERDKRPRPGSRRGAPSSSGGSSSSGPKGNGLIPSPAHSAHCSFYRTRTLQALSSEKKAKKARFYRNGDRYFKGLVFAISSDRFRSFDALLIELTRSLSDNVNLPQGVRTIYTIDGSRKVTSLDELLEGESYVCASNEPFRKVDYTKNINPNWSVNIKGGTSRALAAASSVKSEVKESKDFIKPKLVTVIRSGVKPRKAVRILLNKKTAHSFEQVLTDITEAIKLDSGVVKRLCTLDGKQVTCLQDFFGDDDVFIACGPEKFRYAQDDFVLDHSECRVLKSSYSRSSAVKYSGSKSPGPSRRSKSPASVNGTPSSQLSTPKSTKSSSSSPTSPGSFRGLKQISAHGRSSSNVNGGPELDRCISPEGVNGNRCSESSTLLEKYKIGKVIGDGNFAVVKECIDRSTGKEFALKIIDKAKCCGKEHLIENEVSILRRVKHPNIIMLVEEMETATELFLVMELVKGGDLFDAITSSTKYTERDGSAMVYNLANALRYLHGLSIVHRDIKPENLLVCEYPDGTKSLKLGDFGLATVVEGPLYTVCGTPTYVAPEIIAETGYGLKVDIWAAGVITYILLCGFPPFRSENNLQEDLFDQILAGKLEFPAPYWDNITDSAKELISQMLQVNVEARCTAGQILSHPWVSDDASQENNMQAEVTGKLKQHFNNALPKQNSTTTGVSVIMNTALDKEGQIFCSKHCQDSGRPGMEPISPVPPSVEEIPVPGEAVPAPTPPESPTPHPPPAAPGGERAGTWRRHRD

Compound | KINOMEscan PLK4 [1] | KINOMEscan FGR [2] | KINOMEscan PIK3CA(Q546K) [3] | KINOMEscan TXK [4] | KINOMEscan SYK [5] | KINOMEscan CLK1 [6] | KINOMEscan ERBB4 [7] | KINOMEscan DCLK2 [8]
Cc1cccc(-c2nc(N(C)c3ccc4ncsc4c3)c3ccccc3n2)n1 [NK-161] | 3 | 0 | 7 | 0 | 6 | 2 | 0 | 25
Cc1cccc(-c2nc(Nc3ccc4nn(C)cc4c3)c3ccccc3n2)n1 [NK167] | 0 | 0 | 0 | 3 | 0 | 0 | 0 | 11
